Where “and” joins values, the source holds several entries; their conditions need not be identical. Equal entries are not always repeated.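 Briefly, cells in 96-well plates were exposed to five compound concentrations for 48 h, and endpoints were estimated by linear interpolation. Definition used: TGI = concentration required for complete inhibition of growth.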 Where a SMILES comes first, the peptide text is derived from it. The star is where a group is joined. Cbz = O=C(OCc1ccccc1)*
Each compound was assayed on SF-295 CNS (assay: NCI tumour cell line growth inhibition, 48 h).
In the case of O=Cc1ccc(-c2ccc(-c3ccc(CO)s3)o2)s1, the TGI is reported as over 87.9 µM. Compound CCOP(=O)(OCC)/C(C#N)=C/c1ccc(-c2cc(C(F)(F)F)cc(C(F)(F)F)c2)o1 has a TGI of 11.8 µM. Compound CC(=O)Nc1c(C(=N)C#N)ncn1CCO has a TGI of over 100 µM. For CN1CCN(/C(N)=C(\C#N)C(=O)Nc2ccc(Cl)cc2)CC1, the TGI was over 100 µM. For CN1CCCOC(c2ccc(Cl)cc2)O1 (stereo not drawn), the TGI was over 100 µM. COc1ccc(/C(Cl)=C(\C#N)c2ccc(OC)c(OC)c2)cc1OC showed a TGI of over 100 µM. Compound CCOC(=O)CCC1(CCC(=O)OCC)CCCCCCCCC(CCC(=O)OCC)(CCC(=O)OCC)C(=O)C1=O has a TGI of over 100 µM. Cc1ccc2c(c1)CC1(Cc3cccc(C)c3C1=O)C2=O (stereo not drawn) gave a TGI of over 100 µM. O=c1[nH]nc(Cc2ccc(Cl)cc2)n1/N=C/c1cccs1 gave a TGI of 44 µM. COCn1cnc2c(=O)nc(SC)n(-c3ccccc3)c21 gave a TGI of over 100 µM.

These compounds were tested on SK-MEL-2 melanoma (assay: NCI tumour cell line growth inhibition, 48 h).
COc1ccc(CNc2nc(NC3CCCCC3)nc(NC3CCCCC3)n2)cc1 was tested, and the TGI was 80.3 µM. For S=C1NCCN1C(=S)Nc1ccccc1, the TGI was over 100 µM. Compound CCOC(=O)c1ccc(-c2ccc(Cl)cc2)[nH]1 has a TGI of over 10 µM. CC1CC(Nc2ccc(Br)cc2)N(C(=O)c2ccc(Br)cc2)O1 (stereo not drawn) gave a TGI of over 10 µM. OC(C/C=N/N=C/CC(O)(C(F)(F)Cl)C(F)(F)Cl)(C(F)(F)Cl)C(F)(F)Cl gave a TGI of over 10 µM. For COc1cc2c(cc1O)NC(=O)[C@@H]1CCCN1C2=O, the TGI was over 100 µM. Compound O=C1C=C(Nc2ccc(S(=O)(=O)Nc3nccs3)cc2)c2ccccc2C1=O has a TGI of 82.4 µM. Compound C=CC1(CC[C@]2(c3ccc(OC)c(OC)c3)C=[N+]([O-])O[C@H](O[C@@H]3CCCC[C@H]3C(C)(C)c3ccccc3)C2)OCC(C)(C)CO1 has a TGI of 28.7 µM. Oc1c(Br)ccc2cccnc12 showed a TGI of over 100 µM. O=c1[nH]c2nc3ccccc3c(=O)n2/c1=C/c1cccs1 was tested, and the TGI was over 100 µM. O=C1c2c(Br)sc(Br)c2C(=O)C1(O)O showed a TGI of 86.7 µM. O=C1CCSCCC(=O)Nc2ccccc2N1 was tested, and the TGI was over 100 µM. In the case of COc1ccc(N2C(=O)C(=O)N(c3ccc(N=Nc4ccccc4)cc3)C2=S)cc1, the TGI is reported as 35.1 µM. Work on CC(=O)SC(C[N+](=O)[O-])c1ccc2c(c1)OCO2 (stereo not drawn) yielded a TGI of 14.8 µM. For Cc1ccc(CSC(N)=Nc2ccccc2)cc1C, the TGI was 33.6 µM. In the case of C=C1CCCCCCCCC/C=C/1SCCCSC, the TGI is reported as over 100 µM. COc1cc(Nc2nc3cc(C(F)(F)F)ccc3nc2C(=O)O)cc(OC)c1OC gave a TGI of 38.9 µM. CCOc1cc(NC(C)=O)ccc1C(=O)NNS(=O)(=O)c1ccc(NC(C)=O)cc1 gave a TGI of 95.2 µM. Work on NCCCN(CCCN)CCc1cn(C(=O)c2ccccc2)cn1 yielded a TGI of 24.7 µM. For COc1cccc(-c2nc(-c3cnccn3)n(C/C=C/c3ccccc3)n2)c1, the TGI was over 10 µM. Compound CC1(C)O[C@H]2OC(CO)C(N=[N+]=[N-])[C@H]2O1 (stereo partly drawn) has a TGI of over 100 µM. Cc1[nH]n(-c2nc(O)c(-c3ccccc3)c(=O)[nH]2)c(=O)c1CCO was tested, and the TGI was over 100 µM. With C=C1CC[C@H]2C(=O)OC(c3ccoc3)C[C@]2(C)C/C=C\C=C/1C(=O)OC (stereo partly drawn) the TGI was over 25 µM. CC(NC(=O)Cc1ccccc1)NC(=O)C(C)C(=O)NCc1ccccc1 (stereo not drawn) gave a TGI of over 100 µM. For CCOC(=O)CCC(NC(=O)C(Cc1ccccc1)NC(=O)OCc1ccccc1)C(=O)OCC (stereo not drawn) (Cbz-Phe-Glu(OEt)-OEt; configuration not given here), the TGI was 48 µM. In the case of CC(=O)c1ccc2c(c1)C(=O)c1sc(C(C)=O)cc1C2=O, the TGI is reported as 4.23 µM and 2.98 µM. O=Cc1ccc(-c2ccc(-c3ccc(CO)s3)o2)s1 gave a TGI of 97 µM. In the case of CCOP(=O)(OCC)/C(C#N)=C/c1ccc(-c2cc(C(F)(F)F)cc(C(F)(F)F)c2)o1, the TGI is reported as 38.8 µM. With CC(=O)Nc1c(C(=N)C#N)ncn1CCO the TGI was over 100 µM. Work on CN1CCN(/C(N)=C(\C#N)C(=O)Nc2ccc(Cl)cc2)CC1 yielded a TGI of over 100 µM. CN1CCCOC(c2ccc(Cl)cc2)O1 (stereo not drawn) gave a TGI of over 100 µM. CCC1CC(O)c2c(O)c3c(c(O)c2C1O)C(=O)c1cccc(O)c1C3=O (stereo not drawn) (tested in a mixture with another compound) was tested, and the TGI was 0.0457 µM. Compound COc1ccc(/C(Cl)=C(\C#N)c2ccc(OC)c(OC)c2)cc1OC has a TGI of over 100 µM. In the case of CCOC(=O)CCC1(CCC(=O)OCC)CCCCCCCCC(CCC(=O)OCC)(CCC(=O)OCC)C(=O)C1=O, the TGI is reported as over 100 µM. Work on O=c1[nH]nc(Cc2ccc(Cl)cc2)n1/N=C/c1cccs1 yielded a TGI of 93.6 µM. In the case of COCn1cnc2c(=O)nc(SC)n(-c3ccccc3)c21, the TGI is reported as over 100 µM.

These compounds were tested on SK-MEL-5 melanoma (assay: NCI tumour cell line growth inhibition, 48 h).
Work on COc1ccc(CNc2nc(NC3CCCCC3)nc(NC3CCCCC3)n2)cc1 yielded a TGI of 14.4 µM. For S=C1NCCN1C(=S)Nc1ccccc1, the TGI was over 100 µM. CCOC(=O)c1ccc(-c2ccc(Cl)cc2)[nH]1 showed a TGI of over 10 µM. Work on CC1CC(Nc2ccc(Br)cc2)N(C(=O)c2ccc(Br)cc2)O1 (stereo not drawn) yielded a TGI of over 10 µM. In the case of OC(C/C=N/N=C/CC(O)(C(F)(F)Cl)C(F)(F)Cl)(C(F)(F)Cl)C(F)(F)Cl, the TGI is reported as over 10 µM. With COc1cc2c(cc1O)NC(=O)[C@@H]1CCCN1C2=O the TGI was over 100 µM. For COc1ccc2nc(-c3ccccc3)c(=O)[nH]c2c1, the TGI was over 100 µM.
